The test system of this assay is sows. Description: Example 1: top dress with a single ingredient fed to pregnant sows from day 80 of gestation to parturition; colostrum intake and gain of litters. The following applies: for Total colostrum intake per litter / Average daily gain to day 7, kg per litter: corrected for litter size, sorbic acid 5 g; for Total colostrum intake per litter: 100 g/day top dress, day 80 of gestation up to parturition, betaine 3 g daily, estimated by Theil et al. algorithm; for Average daily gain to day 7, kg per litter: betaine 3 g daily in 100 g top dress. Type of assay: in vivo, pigs.

Structures are written as SMILES.

In the case of `C[N+](C)(C)CC(=O)[O-]` [Betaine, trimethylglycine], the “Average daily gain to day 7 compared to the control (in words)” value is recorded as “negative effect”; the “Colostrum intake per litter compared to the control (in words)” value is on record as “substantially lower”; the “Total colostrum intake per litter” value was 5784 g; the “Average daily gain to day 7, kg per litter” value came to 16.1 kg per litter.
In the same order, the values of `CC=CC=CC(=O)O` [Sorbic acid, 2,4-hexadienoic acid] are “same result as the control”, “slightly lower”, 6227 g and 18.2 kg per litter.

(Values after US12186289B2, “Compositions for feeding a pregnant animal” (Nutreco IP Assets B.V., priority 2018, dated 2025).)
